Data reported in patent US20250195596A1, “COMPOSITION FOR PREVENTING OR TREATING RETINAL DISEASE, CONTAINING CENTELLA ASIATICA EXTRACT” (GENENCELL INC., priority 2018, published 2025).

Tested on: ARPE-19 cells
Experiment: Cell protection from oxidative stress caused by A2E (MTT)
Assay type: cell-based
Conditions: ARPE-19, A2E accumulated 3 days, 30 μM, 48 hours, UV 5 minutes; in % (unit assumed)
Method: To determine the effect of inhibiting macular degeneration, the cell death inhibitory effect of A2E was measured. As test cells, ARPE-19 cells, which are retinal pigment epithelial cells, were used, and the medium, medium composition, and experimental conditions were the same as in Experimental Example 1. ARPE-19 cells were dispensed into a 24-well plate at a concentration of 3×10^4 cells/well and cultured for 24 hours, and then A2E was accumulated at a concentration of 3 µM for 3 days. In order to measure the effect of protecting cells from oxidative stress caused by A2E, the cells were treated with 25 μg/mL, 50 μg/mL, and 100 μg/mL of the 50% alcohol extract of Centella asiatica, and as a positive control, the cells were treated with 30 μM of lutein, which is known to have an inhibitory effect on macular degeneration, and cultured for 48 hours, and after 48 hours, the cells were irradiated with ultraviolet rays using a UV lamp for 5 minutes. The cell growth rate was measured at an absorbance of 570 nm using an MTT reagent, and the absorbance of each test solution was measured and compared with a control not treated with A2E.

SMILES: CC1=C[C@H](O)CC(C)(C)[C@H]1/C=C/C(C)=C/C=C/C(C)=C/C=C/C=C(C)/C=C/C=C(C)/C=C/C1=C(C)C[C@@H](O)CC1(C)C [Lutein, lutein]
- cell growth rate compared with a control not treated with A2E: 71.5 ± 8.22
